Several values for one entry are separate records, joined by “and”; a condition that tells them apart may be missing. Equal entries are not always repeated.
Key:
[1] = for mass density / viscosity: 101.33 kPa, Liquid; for mass density: Pycnometric method; for Normal melting temperature: Crystal, DTA; for viscosity: Cone and plate viscometry
[2] = molar heat capacity at constant pressure; settings: 101.33 kPa, Liquid, Small sample (50 mg) DSC

Cn1cc[n+](CC(Br)CN=[N+]=[N-])c1.N#C[N-]C#N (stereo not given)
Settings	mass density [kg/m3]
[1], 298 K	1280

Settings	Normal melting temperature [°C]
[1]	6

Cn1cc[n+](CC(Br)CN=[N+]=[N-])c1.[Br-] (stereo not given) [1-(3-azido-2-bromopropyl)-3-methyl-3H-imidazol-1-ium bromide]
Settings	mass density [kg/m3]
[1], 298 K	1340

Settings	Normal melting temperature [°C]
[1]	17

Cn1cc[n+](CC(CBr)N=[N+]=[N-])c1.N#C[N-]C#N (stereo not given)
[1]
Settings	mass density [kg/m3]	viscosity
298 K	1310	57.01 mPa·s and 56.9 mPa·s
299 K	–	53.28 mPa·s
300 K	–	49.6 mPa·s and 49.44 mPa·s
301 K	–	46.03 mPa·s
302 K	–	42 mPa·s and 42.05 mPa·s
303.1 K	–	38.84 mPa·s
304 K	–	35.9 mPa·s and 35.89 mPa·s
306 K	–	30.94 mPa·s
306.1 K	–	30.9 mPa·s
307.9 K	–	26.97 mPa·s and 26.9 mPa·s and 26.98 mPa·s
309.8 K	–	23.3 mPa·s
313.9 K	–	17.9 mPa·s
317.9 K	–	13.9 mPa·s
322 K	–	10.8 mPa·s
325.9 K	–	8.8 mPa·s
331.8 K	–	5.9 mPa·s
336 K	–	4.8 mPa·s
339.9 K	–	4.1 mPa·s
344 K	–	3.5 mPa·s
347.9 K	–	3.1 mPa·s
353 K	–	2.5 mPa·s
357.9 K	–	2.2 mPa·s
361.9 K	–	2 mPa·s

Settings	Normal melting temperature [°C]
[1]	-2

C=Cn1cc[n+](CC(C[n+]2ccn(C)c2)N=[N+]=[N-])c1.[Br-].[Br-] (stereo not given)
Settings	mass density [kg/m3]
[1], 298 K	1560

Settings	Normal melting temperature [°C]
[1]	23

C=Cn1cc[n+](CC(C[n+]2ccn(C)c2)N=[N+]=[N-])c1.N#C[N-]C#N.N#C[N-]C#N (stereo not given)
Settings	mass density [kg/m3]	molar heat capacity at constant pressure [J/K/mol]	viscosity [mPa·s]
[1], 298 K	1490	–	83.9
[1], 298.9 K	–	–	66.3
[1], 300 K	–	–	58.4
[1], 300.9 K	–	–	53
[1], 303 K	–	–	45.8
[1], 307.9 K	–	–	35.6
[1], 312.9 K	–	–	29.9
[1], 317.9 K	–	–	26.2
[1], 322.9 K	–	–	23.4
[1], 327.9 K	–	–	20.8
[1], 332.9 K	–	–	18.7
[1], 337.9 K	–	–	17.1
[1], 342.9 K	–	–	16.4
[1], 347.9 K	–	–	15.8
[1], 353 K	–	–	15.2
[1], 357.9 K	–	–	14.6
[1], 362.9 K	–	–	14
[2], 298 K	–	400	–
[2], 303 K	–	409.7	–
[2], 323 K	–	452	–

Settings	Normal melting temperature [°C]
[1]	19

Cn1cc[n+](CC(CBr)N=[N+]=[N-])c1.[Br-] (stereo not given) [1-(2-azido-3-bromopropyl)-3-methyl-3H-imidazol-1-ium bromide]
Settings	mass density [kg/m3]
[1], 298 K	1360

Settings	Normal melting temperature [°C]
[1]	10

Reference: the NIST ThermoML archive (doi:10.1016/j.tca.2015.08.032)
